Consider 1 compound from patent US9868973B2, “Method for optimizing post-translational modifications on recombinant proteins” (STC Biologics, Inc., priority 2014, dated 2018).

For this assay, the system named is fucosyl transferase. The assay is described as follows: Modulation of glycosylation PTMs of trastuzumab biosimilar in CHO cells by FTI (Methods 1 and 2), 2AB glycan analysis. In kind it is cell-based, Chinese Hamster. Here is the method: To obtain a recipe for production of a biosimilar with a similar glycosylation pattern to the original Herceptin®, CHO cells engineered to express the recombinant protein with an amino acid sequence identical to trastuzumab were first grown in the growth media without any inhibitors to establish a Baseline. The glycan species were analyzed using 2AB glycan method. It was observed that Peak 2 (G0) and Peak 6 (G1), and Peak 7 (mannose-5 and G1′) PTMs were lower for the biosimilar than their target PTMs.
G0, G1 and G1′ PTMs are non-fucosylated PTMs and are controlled by a host protein called fucosyl transferase and the mannose-5 PTM is controlled by the host protein known as α-mannosidase I. Fucosyl transferase can be inhibited by a variety of fucosyltransferase inhibitors shown in FIG. 2, α-mannosidase I can be inhibited by kifunensine.
Briefly to obtain trastuzumab with PTMs in the target range, cells were placed in growth media and treated with 2F-Peracetyl-Fucose (FTI) on day 7 at different concentrations (20 μM, 10 μM, 5 μM, 1 μM, 0.1 μM) to identify optimal drug concentration. On day 12 cells were harvested and the trastuzumab biosimilar isolated. […] FTI concentrations used to reach target PTMs are cell specific so it is expected that different concentrations of the FTI or other modulators would be required when a starting cell line is different from the one described in this example.
Different treatment methods such as Method 2 can be used to obtain target PTMs. For example, FTI can be added on a daily basis starting on day 5 (Table 3, Method 2) rather than on Day 7.

Setting [1] is: Method 1: 10 μM FTI on Day 7, trastuzumab biosimilar from CHO cells.
Setting [2] is: Method 2: […]-[…] FTI every day starting at day 5, trastuzumab biosimilar from CHO cells.

SMILES strings stand for the structures.

Consider `CC(=O)OC1O[C@@H](C)[C@@H](OC(C)=O)[C@@H](OC(C)=O)[C@@H]1F` (stereo partly shown) [FTI, 2F-Peracetyl-Fucose], for which, for the setting “10 μM FTI on day 7, harvest day 12”, the “G0, G1 and G1′ PTM levels versus target PTM range” value is recorded as “matched the target PTM range”. Moreover, where the note is “20 μM FTI on day 7, harvest day 12”, the “G0, G1 and G1′ PTM levels versus target PTMs” value was “increase of G0, G1 and G1′ PTMs above that of target PTMs”. Further, the “PTMs versus target range” value (FTI at concentrations lower than 8 μM, day 7) was “outside the target range”. Further, under setting [1], the “Glycan Species Peak 1” value came to 1.5%, the “Glycan Species Peak 2-G0” value was 4%, the “Glycan Species Peak 3” value is 1.5% and the “Glycan Species Peak 4-G0F” value was 44%. Moreover, under setting [1], the “Glycan Species Peak 5” value stood at 0.8%; the “Glycan Species Peak 6-G1” value came to 1.8%; the “Glycan Species Peak 7- G1F/mannose 5” value stood at 1.2%; the “Glycan Species Peak 8- (1, 6)G1F” value turned out to be 26%. Under setting [1], the “Glycan Species Peak 9 (1, 3)G1F” value amounted to 11%; the “Glycan Species Peak 10 G2F” value was 6.5%; the “Glycan Species Peak 11” value came out at 0.2%; the “Glycan Species Peak 12” value amounted to 0.25%. In addition, under setting [1], the “Glycan Species Peak 13” value was found to be 0.2%, the “Glycan Species Peak 14” value stood at 0.2% and the “Glycan Species Peak 15” value amounted to 0.2%. Under setting [2], the “Glycan Species Peak 4-G0F” value came to 44%; the “Glycan Species Peak 8- (1, 6)G1F” value is recorded as 26%; the “Glycan Species Peak 9 (1, 3)G1F” value was found to be 11%; the “Glycan Species Peak 10 G2F” value worked out at 6.5%.
